Data on four sequences can be found in patent US20070128217A1 (priority 2003, published 2007).

Assay [1] has as its system antibodies in sera from SARS patients (sera 1a, 1b, 2, 6, 37, 62, London, SARS-yellow, SARS-green). In kind it is binding, human. The arrangement: Binding of serum 6 to linear peptides of protein X1 of SARS-CoV Urbani / Binding of serum 37 to linear peptides of protein X1 of SARS-CoV Urbani / Binding of serum 6 to looped/cyclic peptide (PEPSCAN-ELISA) / Binding of serum 37 to looped/cyclic peptide (PEPSCAN-ELISA) / Binding of serum 37 to looped/cyclic peptides of protein X1 of SARS-CoV Urbani / Binding of serum 6 to linear peptides of protein X2 / Binding of serum 37 to linear peptides of protein X2 / Binding of serum 37 to looped/cyclic peptides of protein X2 of SARS-CoV Urbani / Binding of serum 6 to linear peptides of protein M of SARS-CoV Urbani / Binding of serum 37 to linear peptides of protein M of SARS-CoV Urbani / Binding of serum 6 to looped/cyclic peptides of protein M of SARS-CoV Urbani / Binding of serum 37 to looped/cyclic peptides of protein M of SARS-CoV Urbani / Binding of serum 6 to linear peptides of protein X3 of SARS-CoV Urbani / Binding of serum 37 to linear peptides of protein X3 of SARS-CoV Urbani / Binding of serum 37 to looped/cyclic peptides of protein X3 of SARS-CoV Urbani / Binding of serum 6 to linear peptides of protein X4 of SARS-CoV Urbani / Binding of serum 37 to linear peptides of protein X4 of SARS-CoV Urbani / Binding of serum 37 to looped/cyclic peptides of protein X4 of SARS-CoV Urbani / Binding of serum 6 to linear peptides of protein X5 of SARS-CoV Urbani / Binding of serum 37 to linear peptides of protein X5 of SARS-CoV Urbani / Binding of serum 37 to looped/cyclic peptides of protein X5 of SARS-CoV Urbani / Binding of serum 6 to linear peptides of protein N of SARS-CoV Urbani / Binding of serum 37 to linear peptides of protein N of SARS-CoV Urbani / Binding of serum 6 to linear peptide (PEPSCAN-ELISA) / Binding of serum 1a to looped/cyclic peptides of protein N of SARS-CoV Urbani / Binding of serum 1b to looped/cyclic peptides of protein N of SARS-CoV Urbani / Binding of serum 2 to looped/cyclic peptides of protein N of SARS-CoV Urbani / Binding of serum 6 to looped/cyclic peptides of protein N of SARS-CoV Urbani / Binding of serum 37 to looped/cyclic peptides of protein N of SARS-CoV Urbani / Binding of serum 62 to looped/cyclic peptides of protein N of SARS-CoV Urbani / Binding of serum London to looped/cyclic peptides of protein N of SARS-CoV Urbani / Binding of serum SARS-green to looped/cyclic peptides of protein N of SARS-CoV Urbani: unit not given here.

Assay [2] deals with control sera (pooled serum of ten healthy LUMC hospital workers; commercial negative donor pooled serum from the Dutch bloodbank). In kind it is binding, human. Set-up: Binding of Control serum LUMC to linear peptides / Binding of Control serum Blood-bank to linear peptides / Binding of Control serum LUMC to looped peptides / Binding of Control Serum Blood-Bank to Looped peptides / Binding of Control serum LUMC to linear peptides of the protein M of SARS-CoV Urbani / Binding of Control serum Blood-bank to linear peptides of the protein M of SARS-CoV Urbani / Binding of Control serum LUMC to looped peptides of the protein M of SARS-CoV Urbani / Binding of Control Serum Blood-Bank to Looped peptides of the protein M of SARS-CoV Urbani: unit not given here.

Assay [3] relates to rabbit serum obtained by immunizing a rabbit with the SARS-CoV strain Frankfurt 1. The class given is binding. Set-up: Binding of a rabbit serum to linear peptides / Binding of a rabbit serum to looped peptides / Rabbit serum linear peptides / Rabbit serum looped peptides / Binding of a rabbit serum to linear peptides of protein N of SARS-CoV Urbani (Rabbit serum linear peptides) / Binding of a rabbit serum to looped/cyclic peptides of protein N of SARS-CoV Urbani (Rabbit serum looped peptides): unit not given here.

For the sequence LIQQWIQFMMSRRRL, in assay [1], the “Binding of serum 1a to linear peptides of protein X2” value was determined as 0.7, the “Binding of serum 1a to looped/cyclic peptides of protein X2 of SARS-CoV Urbani” value was 0.5, the “Binding of serum 1b to linear peptides of protein X2” value was 0.4 and the “Binding of serum 1b to looped/cyclic peptides of protein X2 of SARS-CoV Urbani” value was determined as 0.5. In assay [1], the “Binding of serum 2 to linear peptides of protein X2” value was 0.4, the “Binding of serum 2 to looped/cyclic peptides of protein X2 of SARS-CoV Urbani” value was 0.8, the “Binding of serum 6 to linear peptides of protein X2” value was determined as 0.7 and the “Binding of serum 6 to looped/cyclic peptides of protein X2 of SARS-CoV Urbani” value worked out at 0.5. Further, in assay [1], the “Binding of serum 37 to linear peptides of protein X2” value is on record as 0.6, the “Binding of serum 37 to looped/cyclic peptides of protein X2 of SARS-CoV Urbani” value is 0.5, the “Binding of serum 62 to linear peptides of protein X2” value came out at 0.5 and the “Binding of serum 62 to looped/cyclic peptides of protein X2 of SARS-CoV Urbani” value is given as 0.8. In assay [1], the “Binding of serum London to linear peptides of protein X2” value is 0.5, the “Binding of serum London to looped/cyclic peptides of protein X2 of SARS-CoV Urbani” value came out at 0.9, the “Binding of serum SARS-green to linear peptides of protein X2” value worked out at 0.4 and the “Binding of serum SARS-green to looped/cyclic peptides of protein X2 of SARS-CoV Urbani” value is reported as 0.3. In assay [1], the “Binding of serum SARS-yellow to linear peptides of protein X2” value came to 0.8 and the “Binding of serum SARS-yellow to looped/cyclic peptides of protein X2 of SARS-CoV Urbani” value is 0.5. Moreover, in assay [2], the “Binding of Control Serum Blood-Bank to Looped peptides” value is 0.4, the “Binding of Control serum Blood-bank to linear peptides” value is 0.7, the “Binding of Control serum LUMC to linear peptides” value amounted to 0.5 and the “Binding of Control serum LUMC to looped peptides” value came out at 0.6. Besides, in assay [3], the “Binding of a rabbit serum to linear peptides” value was 0.3 and the “Binding of a rabbit serum to looped peptides” value was 1.2.
In the case of LIVAALVFLILCFTI, in assay [1], the “Binding of serum 1a to linear peptides of protein X4 of SARS-CoV Urbani” value was found to be 0.7, the “Binding of serum 1a to looped/cyclic peptides of protein X4 of SARS-CoV Urbani” value was 0.6, the “Binding of serum 1b to linear peptides of protein X4 of SARS-CoV Urbani” value stood at 0.5 and the “Binding of serum 1b to looped/cyclic peptides of protein X4 of SARS-CoV Urbani” value is recorded as 0.3. For the same sequence, in assay [1], the “Binding of serum 2 to linear peptides of protein X4 of SARS-CoV Urbani” value was found to be 0.5, the “Binding of serum 2 to looped/cyclic peptides of protein X4 of SARS-CoV Urbani” value is reported as 0.5, the “Binding of serum 6 to linear peptides of protein X4 of SARS-CoV Urbani” value was 0.4 and the “Binding of serum 6 to looped/cyclic peptides of protein X4 of SARS-CoV Urbani” value amounted to 0.3. Further, in assay [1], the “Binding of serum 37 to linear peptides of protein X4 of SARS-CoV Urbani” value was 0.6, the “Binding of serum 37 to looped/cyclic peptides of protein X4 of SARS-CoV Urbani” value turned out to be 0.6, the “Binding of serum 62 to linear peptides of protein X4 of SARS-CoV Urbani” value turned out to be 0.6 and the “Binding of serum 62 to looped/cyclic peptides of protein X4 of SARS-CoV Urbani” value turned out to be 0.6. In assay [1], the “Binding of serum London to linear peptides of protein X4 of SARS-CoV Urbani” value turned out to be 0.6, the “Binding of serum London to looped/cyclic peptides of protein X4 of SARS-CoV Urbani” value is recorded as 0.2, the “Binding of serum SARS-green to linear peptides of protein X4 of SARS-CoV Urbani” value turned out to be 0.5 and the “Binding of serum SARS-green to looped/cyclic peptides of protein X4 of SARS-CoV Urbani” value was found to be 0.4. Also, in assay [1], the “Binding of serum SARS-yellow to linear peptides of protein X4 of SARS-CoV Urbani” value is recorded as 0.4 and the “Binding of serum SARS-yellow to looped/cyclic peptides of protein X4 of SARS-CoV Urbani” value is reported as 0.5. Also, in assay [2], the “Binding of Control Serum Blood-Bank to Looped peptides” value was 0.5, the “Binding of Control serum Blood-bank to linear peptides” value was 0.6, the “Binding of Control serum LUMC to linear peptides” value is reported as 0.4 and the “Binding of Control serum LUMC to looped peptides” value stood at 0.5. Further, in assay [3], the “Rabbit serum linear peptides” value is listed as 0.5 and the “Rabbit serum looped peptides” value is recorded as 0.4.
Take LKMLHSSSLTSLLKT: in assay [1], the “Binding of serum 1a to linear peptides of protein X2” value is on record as 0.6, the “Binding of serum 1a to looped/cyclic peptides of protein X2 of SARS-CoV Urbani” value is 0.5, the “Binding of serum 1b to linear peptides of protein X2” value is on record as 0.5 and the “Binding of serum 1b to looped/cyclic peptides of protein X2 of SARS-CoV Urbani” value is recorded as 0.5. In assay [1], the “Binding of serum 2 to linear peptides of protein X2” value is 0.6, the “Binding of serum 2 to looped/cyclic peptides of protein X2 of SARS-CoV Urbani” value came to 0.3, the “Binding of serum 6 to linear peptides of protein X2” value is on record as 0.4 and the “Binding of serum 6 to looped/cyclic peptides of protein X2 of SARS-CoV Urbani” value is reported as 0.3. For the same sequence, in assay [1], the “Binding of serum 37 to linear peptides of protein X2” value was found to be 0.6, the “Binding of serum 37 to looped/cyclic peptides of protein X2 of SARS-CoV Urbani” value came out at 0.4, the “Binding of serum 62 to linear peptides of protein X2” value came out at 0.6 and the “Binding of serum 62 to looped/cyclic peptides of protein X2 of SARS-CoV Urbani” value amounted to 0.6. Moreover, in assay [1], the “Binding of serum London to linear peptides of protein X2” value was found to be 0.5, the “Binding of serum London to looped/cyclic peptides of protein X2 of SARS-CoV Urbani” value was 0.2, the “Binding of serum SARS-green to linear peptides of protein X2” value is given as 0.5 and the “Binding of serum SARS-green to looped/cyclic peptides of protein X2 of SARS-CoV Urbani” value is listed as 0.3. Moreover, in assay [1], the “Binding of serum SARS-yellow to linear peptides of protein X2” value came to 0.6 and the “Binding of serum SARS-yellow to looped/cyclic peptides of protein X2 of SARS-CoV Urbani” value was 0.2. For the same sequence, in assay [2], the “Binding of Control Serum Blood-Bank to Looped peptides” value came out at 0.6, the “Binding of Control serum Blood-bank to linear peptides” value was 0.7, the “Binding of Control serum LUMC to linear peptides” value came out at 0.4 and the “Binding of Control serum LUMC to looped peptides” value came to 0.5. In assay [3], the “Binding of a rabbit serum to linear peptides” value was 0.2 and the “Binding of a rabbit serum to looped peptides” value amounted to 0.4.
As to LLACLCKHKKVSTNL, in assay [1], the “Binding of serum 1a to looped/cyclic peptides of protein X2 of SARS-CoV Urbani” value came to 0.4, the “Binding of serum 1b to looped/cyclic peptides of protein X2 of SARS-CoV Urbani” value is on record as 0.4, the “Binding of serum 2 to looped/cyclic peptides of protein X2 of SARS-CoV Urbani” value was determined as 0.4 and the “Binding of serum 6 to looped/cyclic peptides of protein X2 of SARS-CoV Urbani” value came to 0.4. In addition, in assay [1], the “Binding of serum 37 to looped/cyclic peptides of protein X2 of SARS-CoV Urbani” value is reported as 0.5, the “Binding of serum 62 to looped/cyclic peptides of protein X2 of SARS-CoV Urbani” value was determined as 0.7, the “Binding of serum London to looped/cyclic peptides of protein X2 of SARS-CoV Urbani” value is 0.2 and the “Binding of serum SARS-green to looped/cyclic peptides of protein X2 of SARS-CoV Urbani” value was 0.3. Also, in assay [1], the “Binding of serum SARS-yellow to looped/cyclic peptides of protein X2 of SARS-CoV Urbani” value is listed as 0.4; the “Recognition of the peptide by sera of SARS-CoV infected individuals, and form (linear, looped/cyclic) in which it is recognized” value was “recognized in linear form”. In assay [2], the “Binding of Control Serum Blood-Bank to Looped peptides” value was 0.5, the “Binding of Control serum Blood-bank to linear peptides” value is given as 0.8, the “Binding of Control serum LUMC to linear peptides” value was 0.8 and the “Binding of Control serum LUMC to looped peptides” value is listed as 0.7. Moreover, in assay [3], the “Binding of a rabbit serum to linear peptides” value stood at 0.4 and the “Binding of a rabbit serum to looped peptides” value was 0.4.
